In ChEMBL document CHEMBL5316268 (J Med Chem, 2023):
Activity calls are given as the source filed them. The calls are words filed in the database; no cut-off is given here.

Tests used:
[1] = biological target: T1, 5'-nucleotidase (Homo sapiens, UniProt P21589); experiment: Inhibition of CD73 in human plasma incubated for 15 mins in presence of 15N5-AMP by LC/MS analysis; assay type: cell-free
[2] = Oral bioavailability in CD rat at 50 mg/kg measured for 24 hrs by LC-MS/MS analysis; assay type: ADME, organism-based; details: in vivo, po, 50 mg/kg, 24 h
[3] = Selectivity ratio of IC50 for CD73 in human plasma to IC50 for C-terminal 6His-tagged recombinant human CD73 (27 to 547 residues) expressed in CHO cells; assay type: cell-based
[4] = biological target: T2, 5'-nucleotidase (Mus musculus, UniProt Q61503); experiment: Inhibition of C-terminal 6His-tagged recombinant mouse CD73 (29 to 549 residues) expressed in CHO cells incubated for 1 hr by malachite green assay; assay type: cell-based
T2 sequence (Q61503 whole entry): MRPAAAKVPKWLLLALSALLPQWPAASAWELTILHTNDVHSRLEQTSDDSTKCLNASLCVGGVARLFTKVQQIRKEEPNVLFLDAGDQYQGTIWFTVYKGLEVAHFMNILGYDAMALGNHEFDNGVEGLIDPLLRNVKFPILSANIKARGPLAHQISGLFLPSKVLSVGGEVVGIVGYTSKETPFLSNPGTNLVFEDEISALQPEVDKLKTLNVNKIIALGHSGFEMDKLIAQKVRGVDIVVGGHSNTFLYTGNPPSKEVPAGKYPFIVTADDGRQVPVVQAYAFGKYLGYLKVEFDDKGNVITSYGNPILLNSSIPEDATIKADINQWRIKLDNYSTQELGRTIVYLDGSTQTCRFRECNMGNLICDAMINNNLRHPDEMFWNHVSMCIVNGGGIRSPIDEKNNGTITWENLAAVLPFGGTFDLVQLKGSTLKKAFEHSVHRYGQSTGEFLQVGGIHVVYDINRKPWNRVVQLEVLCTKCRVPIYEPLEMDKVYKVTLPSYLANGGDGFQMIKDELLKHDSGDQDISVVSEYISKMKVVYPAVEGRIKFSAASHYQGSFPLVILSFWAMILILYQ

[5] = biological target: T2, 5'-nucleotidase; experiment: Inhibition of CD73 in mouse plasma incubated for 5 mins in presence of 15N5-AMP by LC/MS analysis; assay type: cell-free
[6] = biological target: T1, 5'-nucleotidase; experiment: Inhibition of CD73 in human plasma derived from ovarian cancer patient incubated for 15 mins in presence of 15N5-AMP by LC/MS analysis; assay type: cell-free
[7] = biological target: T1, 5'-nucleotidase; experiment: Inhibition of CD73 in human plasma derived from TNBC cancer patient incubated for 15 mins in presence of 15N5-AMP by LC/MS analysis; assay type: cell-free
[8] = biological target: T1, 5'-nucleotidase; experiment: Inhibition of CD73 in human plasma derived from esophageal cancer patient incubated for 15 mins in presence of 15N5-AMP by LC/MS analysis; assay type: cell-free
[9] = Plasma protein binding in human at 10 uM assessed as bound fraction; assay type: ADME, cell-free; details: read-out: PPB (converted)
[10] = Plasma protein binding in human assessed as unbound fraction; assay type: ADME, cell-free
[11] = biological target: T3, Cytochrome P450 2C8 (Homo sapiens, UniProt P10632); experiment: Inhibition of human CYP2C8 at 10 uM; assay type: ADME
T3 sequence (P10632 whole entry): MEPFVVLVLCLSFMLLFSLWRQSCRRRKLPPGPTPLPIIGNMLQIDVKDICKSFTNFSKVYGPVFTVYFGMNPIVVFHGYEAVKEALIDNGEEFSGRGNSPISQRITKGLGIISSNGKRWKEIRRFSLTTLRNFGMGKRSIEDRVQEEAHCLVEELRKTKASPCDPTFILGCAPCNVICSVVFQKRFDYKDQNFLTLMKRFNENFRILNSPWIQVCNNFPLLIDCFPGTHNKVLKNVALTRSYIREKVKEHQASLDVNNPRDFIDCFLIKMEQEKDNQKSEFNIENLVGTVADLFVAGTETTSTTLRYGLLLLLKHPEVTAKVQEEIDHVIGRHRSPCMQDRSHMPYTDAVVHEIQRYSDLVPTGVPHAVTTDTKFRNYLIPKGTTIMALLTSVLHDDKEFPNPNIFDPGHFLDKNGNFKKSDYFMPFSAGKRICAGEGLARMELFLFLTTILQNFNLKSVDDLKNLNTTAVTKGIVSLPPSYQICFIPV

[12] = biological target: Cytochrome P450 2C19 (Homo sapiens, UniProt P33261); experiment: Inhibition of human CYP2C19 at 10 uM; assay type: ADME
Cytochrome P450 2C19, sequence (P33261 whole entry): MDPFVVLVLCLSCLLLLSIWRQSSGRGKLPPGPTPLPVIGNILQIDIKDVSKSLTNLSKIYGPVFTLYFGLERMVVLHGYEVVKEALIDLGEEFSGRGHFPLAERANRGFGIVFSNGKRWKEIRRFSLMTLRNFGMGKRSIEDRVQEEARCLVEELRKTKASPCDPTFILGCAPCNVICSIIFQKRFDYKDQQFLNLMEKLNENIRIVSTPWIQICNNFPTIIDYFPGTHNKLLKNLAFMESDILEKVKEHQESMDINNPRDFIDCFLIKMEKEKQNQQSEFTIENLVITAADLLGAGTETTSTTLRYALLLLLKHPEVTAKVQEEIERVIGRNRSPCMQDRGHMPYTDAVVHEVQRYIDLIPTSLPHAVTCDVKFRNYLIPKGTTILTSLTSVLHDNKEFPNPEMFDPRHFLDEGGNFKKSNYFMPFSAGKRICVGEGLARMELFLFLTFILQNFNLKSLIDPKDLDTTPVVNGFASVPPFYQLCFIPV

[13] = biological target: Cytochrome P450 2D6 (Homo sapiens, UniProt P10635); experiment: Inhibition of human CYP2D6 at 10 uM; assay type: ADME
Cytochrome P450 2D6, sequence (P10635 whole entry): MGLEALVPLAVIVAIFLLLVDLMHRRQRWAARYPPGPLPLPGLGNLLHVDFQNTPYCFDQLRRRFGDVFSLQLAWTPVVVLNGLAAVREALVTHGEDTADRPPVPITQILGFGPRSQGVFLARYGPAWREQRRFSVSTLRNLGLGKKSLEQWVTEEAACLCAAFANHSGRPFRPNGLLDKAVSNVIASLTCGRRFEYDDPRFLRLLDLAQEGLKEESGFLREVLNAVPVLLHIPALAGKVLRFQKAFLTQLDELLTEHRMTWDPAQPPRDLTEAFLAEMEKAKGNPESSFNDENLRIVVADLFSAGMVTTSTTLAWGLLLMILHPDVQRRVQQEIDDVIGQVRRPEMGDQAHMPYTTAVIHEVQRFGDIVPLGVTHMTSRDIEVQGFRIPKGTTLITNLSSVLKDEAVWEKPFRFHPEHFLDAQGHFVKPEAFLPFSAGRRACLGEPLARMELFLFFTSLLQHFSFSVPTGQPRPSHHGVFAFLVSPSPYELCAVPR

[14] = biological target: Cytochrome P450 3A4 (Homo sapiens, UniProt P08684); experiment: Inhibition of human CYP3A4 at 10 uM; assay type: ADME
Cytochrome P450 3A4, sequence (P08684 whole entry): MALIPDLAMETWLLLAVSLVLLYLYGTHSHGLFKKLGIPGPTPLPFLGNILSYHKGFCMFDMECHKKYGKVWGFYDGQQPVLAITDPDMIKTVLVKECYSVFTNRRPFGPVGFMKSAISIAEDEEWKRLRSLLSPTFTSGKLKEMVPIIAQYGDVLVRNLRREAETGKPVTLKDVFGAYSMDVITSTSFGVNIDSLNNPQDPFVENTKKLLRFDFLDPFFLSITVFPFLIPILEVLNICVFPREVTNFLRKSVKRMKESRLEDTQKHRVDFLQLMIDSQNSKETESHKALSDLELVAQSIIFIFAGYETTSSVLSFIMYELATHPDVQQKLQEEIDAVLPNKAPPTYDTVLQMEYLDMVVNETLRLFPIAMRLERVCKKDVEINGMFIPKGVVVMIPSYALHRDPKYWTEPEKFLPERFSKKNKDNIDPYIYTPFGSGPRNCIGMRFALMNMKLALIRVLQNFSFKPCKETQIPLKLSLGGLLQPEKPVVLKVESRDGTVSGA

[15] = Cmax in CD rat at 50 mg/kg, po measured for 24 hrs by LC-MS/MS analysis; assay type: ADME, organism-based; design: dose 50 mg/kg, time 24 hrs, route po; details: in vivo
[16] = Cmax in CD rat at 200 mg/kg, po measured for 24 hrs by LC-MS/MS analysis; assay type: ADME, organism-based; design: time 24 hrs, dose 200 mg/kg, route po; details: in vivo
[17] = Cmax in CD rat at 500 mg/kg, po measured for 24 hrs by LC-MS/MS analysis; assay type: ADME, organism-based; design: dose 500 mg/kg, time 24 hrs, route po; details: in vivo
[18] = Tmax in CD rat at 200 mg/kg, po measured for 24 hrs by LC-MS/MS analysis; assay type: ADME, organism-based; details: in vivo
[19] = Drug concentration in mouse plasma at 50 mg/kg, po administered as single dose measured after 24 hrs by LC/MS analysis; assay type: ADME, organism-based
[20] = Drug concentration in tumor of mouse implanted with mouse EG7 cells at 10 to 50 mg/kg, po bid administered for 20 days and measured after 16 hrs post-last dose by LC/MS analysis; assay type: ADME, organism-based, Neoplasm; details: dose 10-50 mg/kg, time 20 day, read-out: Ct
[21] = tested on: EG7; experiment: Antitumor activity against mouse EG7 cells implanted in C57BL/6 mouse assessed as activation of tumor-directed immune response by measuring increase in tumor-infiltrating CD8 positive cells at 50 mg/kg, po bid measured after 14 days by flow cytometry; assay type: functional, organism-based; details: time 14.0 day
[22] = tested on: EG7; experiment: Antitumor activity against mouse EG7 cells implanted in C57BL/6 mouse assessed as reduction in tumor volume at 50 mg/kg, po bid administered for 19 days in presence of doxorubicin; assay type: functional, organism-based; details: time 19.0 day
[23] = tested on: EG7; experiment: Antitumor activity against mouse EG7 cells implanted in C57BL/6 mouse assessed as reduction in tumor volume at 100 mg/kg, po bid administered for 23 days in presence of oxaliplatin; assay type: functional, organism-based; details: time 23.0 day
[24] = biological target: T1, 5'-nucleotidase; experiment: Competitive inhibition of soluble C-terminal 6His-tagged recombinant human CD73 (27 to 547 residues) expressed in CHO cells assessed as inhibition constant incubated for 1 hr by malachite green based spectrophotometer assay; assay type: cell-based
[25] = biological target: T1, 5'-nucleotidase; experiment: Competitive inhibition of cell surface anchored CD73 (unknown origin) expressed in human SK-MEL-28 cells assessed as inhibition constant incubated for 30 mins by malachite green assay; assay type: cell-based

T1 sequence (P21589 whole entry): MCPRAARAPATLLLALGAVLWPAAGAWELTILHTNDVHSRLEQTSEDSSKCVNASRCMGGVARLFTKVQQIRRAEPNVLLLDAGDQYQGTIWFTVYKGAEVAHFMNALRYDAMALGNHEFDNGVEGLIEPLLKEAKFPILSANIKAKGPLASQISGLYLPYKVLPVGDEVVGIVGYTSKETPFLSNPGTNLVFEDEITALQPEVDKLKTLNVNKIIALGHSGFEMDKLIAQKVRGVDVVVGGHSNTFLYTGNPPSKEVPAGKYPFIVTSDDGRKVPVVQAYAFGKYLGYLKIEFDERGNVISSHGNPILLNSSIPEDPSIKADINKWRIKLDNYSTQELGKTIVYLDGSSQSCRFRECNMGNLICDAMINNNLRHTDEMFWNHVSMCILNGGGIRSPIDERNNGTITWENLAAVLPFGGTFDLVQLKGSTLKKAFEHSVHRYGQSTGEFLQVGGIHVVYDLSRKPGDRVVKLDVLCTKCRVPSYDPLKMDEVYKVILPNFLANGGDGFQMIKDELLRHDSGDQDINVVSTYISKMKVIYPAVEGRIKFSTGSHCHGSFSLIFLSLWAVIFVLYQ

- IC90 [1]: 3 nM
- F [2]: 2.8%
- IC50 [4]: 1.3 nM
- IC50 [5]: 1.2 nM
- IC50 [6]: 0.15 nM
- IC50 [7]: 0.18 nM
- IC50 [8]: 0.1 nM
- fraction unbound at 10 µM [9]: 0.42
- fraction unbound [10]: 0.42
- inhibition (INH) [11]: Not Active
- inhibition (INH) [12]: Not Active
- inhibition (INH) [13]: Not Active
- inhibition (INH) [14]: Not Active
- Cmax [15]: 74 nM
- Cmax [16]: 1800 nM
- Cmax [17]: 11000 nM
- Tmax [18]: 48 min
- concentration at 24 h [19]: > 1 nM
- concentration at 480 h [20]: > 3 nM
- Ki [24]: 0.038 nM
- Ki [25]: 0.11 nM
Structure (SMILES): C#C[C@@]1(O)[C@@H](COC(Cc2ccc(N3CCCNC3=O)cc2)(C(=O)O)C(=O)O)O[C@@H](n2cnc3c(N)nc(Cl)nc32)[C@@H]1O
- Ratio IC50 [3]: 2.2
- Activity [21]: Active
- Activity [22]: Active
- Activity [23]: Active
